Legend:
Test in all cases: relative viability (nuclei count vs DMSO), 5 days (fraction); higher = more cells survive
[1] = compound: OCc1c[nH]c2ccccc12 [Indole-3-carbinol] + C[C@@H](Oc1cc(-c2cnn(C3CCNCC3)c2)cnc1N)c1c(Cl)ccc(F)c1Cl [Crizotinib] (partner 1 µM)
In short: (§1)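 Medians of duplicate plates are given as relative viability. That measure is the nuclei count in treated wells divided by the count in vehicle wells. Counts were taken on 4× images of lung cancer cell lines in 1536-well plates, 5 days after pin-tool dosing the day after seeding with one drug alone or a fixed anchor-drug dose plus five library-drug doses (not always all listed) in √10 steps.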

[2] = compound: OCc1c[nH]c2ccccc12 [Indole-3-carbinol] + Nc1nc2[nH]cc(CCc3ccc(C(=O)N[C@@H](CCC(=O)O)C(=O)O)cc3)c2c(=O)[nH]1 [Pemetrexed] (partner 0.2 µM)
In short: as §1

[3] = compound: OCc1c[nH]c2ccccc12 [Indole-3-carbinol] + Nc1ncn([C@H]2C[C@H](O)[C@@H](CO)O2)c(=O)n1 [Decitabine] (partner 2 µM)
In short: as §1

[4] = compound: OCc1c[nH]c2ccccc12 [Indole-3-carbinol] + COc1cccc2cc(-c3nc([C@H]4CC[C@H](C(=O)O)CC4)n4ncnc(N)c34)[nH]c12 [OSI-027] (partner 0.5 µM)
In short: as §1

[5] = compound: OCc1c[nH]c2ccccc12 [Indole-3-carbinol] + CC(C)C[C@H](NC(=O)[C@H](Cc1ccccc1)NC(=O)c1cnccn1)B(O)O [Bortezomib] (partner 0.002 µM)
In short: as §1

NCI-H358
relative viability ([1]; first compound 0.253 µM): 0.64
relative viability ([1]; first compound 0.8 µM): 0.698
relative viability ([1]; first compound 2.53 µM): 0.735
relative viability ([1]; first compound 8 µM): 0.461
relative viability ([2]; first compound 0.253 µM): 0.17
relative viability ([2]; first compound 0.8 µM): 0.161
relative viability ([2]; first compound 2.53 µM): 0.182
relative viability ([2]; first compound 8 µM): 0.185
relative viability ([3]; first compound 0.253 µM): 0.204
relative viability ([3]; first compound 0.8 µM): 0.207
relative viability ([3]; first compound 2.53 µM): 0.304
relative viability ([3]; first compound 8 µM): 0.207
relative viability ([4]; first compound 0.253 µM): 0.792
relative viability ([4]; first compound 0.8 µM): 0.734
relative viability ([4]; first compound 2.53 µM): 0.859
relative viability ([4]; first compound 8 µM): 0.64

NCI-H727
relative viability ([1]; first compound 0.253 µM): 0.795
relative viability ([1]; first compound 0.8 µM): 1.05
relative viability ([1]; first compound 2.53 µM): 0.906
relative viability ([1]; first compound 8 µM): 0.832
relative viability ([5]; first compound 0.253 µM): 0.872
relative viability ([5]; first compound 0.8 µM): 0.842
relative viability ([5]; first compound 2.53 µM): 0.897
relative viability ([5]; first compound 8 µM): 0.828
relative viability ([3]; first compound 0.253 µM): 0.997
relative viability ([3]; first compound 0.8 µM): 0.782
relative viability ([3]; first compound 2.53 µM): 0.884
relative viability ([3]; first compound 8 µM): 0.825
relative viability ([4]; first compound 0.253 µM): 0.544
relative viability ([4]; first compound 0.8 µM): 0.517
relative viability ([4]; first compound 2.53 µM): 0.548
relative viability ([4]; first compound 8 µM): 0.771

NCI-H1395
relative viability ([2]; first compound 0.253 µM): 0.848
relative viability ([2]; first compound 0.8 µM): 0.868
relative viability ([2]; first compound 2.53 µM): 0.78
relative viability ([2]; first compound 8 µM): 0.845
relative viability ([3]; first compound 0.253 µM): 0.723
relative viability ([3]; first compound 0.8 µM): 0.771
relative viability ([3]; first compound 2.53 µM): 0.695
relative viability ([3]; first compound 8 µM): 0.685
relative viability ([4]; first compound 0.253 µM): 0.738
relative viability ([4]; first compound 0.8 µM): 0.606
relative viability ([4]; first compound 2.53 µM): 0.637
relative viability ([4]; first compound 8 µM): 0.613

NCI-H1563
relative viability ([1]; first compound 0.253 µM): 0.769
relative viability ([1]; first compound 0.8 µM): 0.883
relative viability ([1]; first compound 2.53 µM): 0.866
relative viability ([1]; first compound 8 µM): 0.879
relative viability ([5]; first compound 0.253 µM): 0.951
relative viability ([5]; first compound 0.8 µM): 0.7
relative viability ([5]; first compound 2.53 µM): 0.996
relative viability ([5]; first compound 8 µM): 0.774
relative viability ([2]; first compound 0.253 µM): 0.767
relative viability ([2]; first compound 0.8 µM): 0.645
relative viability ([2]; first compound 2.53 µM): 0.809
relative viability ([2]; first compound 8 µM): 0.802
relative viability ([4]; first compound 0.253 µM): 0.733
relative viability ([4]; first compound 0.8 µM): 0.748
relative viability ([4]; first compound 2.53 µM): 0.747
relative viability ([4]; first compound 8 µM): 0.791

NCI-H1703
relative viability ([1]; first compound 0.253 µM): 0.835
relative viability ([1]; first compound 0.8 µM): 0.853
relative viability ([1]; first compound 2.53 µM): 0.991
relative viability ([1]; first compound 8 µM): 0.661
relative viability ([5]; first compound 0.253 µM): 0.274
relative viability ([5]; first compound 0.8 µM): 0.389
relative viability ([5]; first compound 2.53 µM): 0.358
relative viability ([5]; first compound 8 µM): 0.453

NCI-H1793
relative viability ([2]; first compound 0.253 µM): 0.934
relative viability ([2]; first compound 0.8 µM): 0.773
relative viability ([2]; first compound 2.53 µM): 1.03
relative viability ([2]; first compound 8 µM): 0.761
relative viability ([3]; first compound 0.253 µM): 0.502
relative viability ([3]; first compound 0.8 µM): 0.465
relative viability ([3]; first compound 2.53 µM): 0.472
relative viability ([3]; first compound 8 µM): 0.479
relative viability ([4]; first compound 0.253 µM): 0.233
relative viability ([4]; first compound 0.8 µM): 0.251
relative viability ([4]; first compound 2.53 µM): 0.268
relative viability ([4]; first compound 8 µM): 0.31

NCI-H1944
relative viability ([1]; first compound 0.253 µM): 1.06
relative viability ([1]; first compound 0.8 µM): 0.951
relative viability ([1]; first compound 2.53 µM): 1.12
relative viability ([1]; first compound 8 µM): 0.955
relative viability ([2]; first compound 0.253 µM): 0.663
relative viability ([2]; first compound 0.8 µM): 0.539
relative viability ([2]; first compound 2.53 µM): 0.649
relative viability ([2]; first compound 8 µM): 0.641
relative viability ([3]; first compound 0.253 µM): 0.46
relative viability ([3]; first compound 0.8 µM): 0.456
relative viability ([3]; first compound 2.53 µM): 0.441
relative viability ([3]; first compound 8 µM): 0.404
relative viability ([4]; first compound 0.253 µM): 0.375
relative viability ([4]; first compound 0.8 µM): 0.378
relative viability ([4]; first compound 2.53 µM): 0.369
relative viability ([4]; first compound 8 µM): 0.363

NCI-H2170
relative viability ([1]; first compound 0.253 µM): 1.26
relative viability ([1]; first compound 0.8 µM): 1.3
relative viability ([1]; first compound 2.53 µM): 1.15
relative viability ([1]; first compound 8 µM): 1.03
relative viability ([2]; first compound 0.253 µM): 0.286
relative viability ([2]; first compound 0.8 µM): 0.24
relative viability ([2]; first compound 2.53 µM): 0.292
relative viability ([2]; first compound 8 µM): 0.273
relative viability ([3]; first compound 0.253 µM): 0.505
relative viability ([3]; first compound 0.8 µM): 0.494
relative viability ([3]; first compound 2.53 µM): 0.446
relative viability ([3]; first compound 8 µM): 0.473
relative viability ([4]; first compound 0.253 µM): 0.702
relative viability ([4]; first compound 0.8 µM): 0.815
relative viability ([4]; first compound 2.53 µM): 0.749
relative viability ([4]; first compound 8 µM): 0.671

NCI-H2228
relative viability ([1]; first compound 0.253 µM): 0.582
relative viability ([1]; first compound 0.8 µM): 0.461
relative viability ([1]; first compound 2.53 µM): 0.567
relative viability ([1]; first compound 8 µM): 0.454
relative viability ([5]; first compound 0.253 µM): 1.17
relative viability ([5]; first compound 0.8 µM): 0.876
relative viability ([5]; first compound 2.53 µM): 0.914
relative viability ([5]; first compound 8 µM): 0.911
relative viability ([2]; first compound 0.253 µM): 0.368
relative viability ([2]; first compound 0.8 µM): 0.335
relative viability ([2]; first compound 2.53 µM): 0.334
relative viability ([2]; first compound 8 µM): 0.344
relative viability ([4]; first compound 0.253 µM): 0.477
relative viability ([4]; first compound 0.8 µM): 0.724
relative viability ([4]; first compound 2.53 µM): 0.597
relative viability ([4]; first compound 8 µM): 0.651

NCI-H2342
relative viability ([2]; first compound 0.253 µM): 0.757
relative viability ([2]; first compound 0.8 µM): 0.738
relative viability ([2]; first compound 2.53 µM): 0.751
relative viability ([2]; first compound 8 µM): 0.742
relative viability ([3]; first compound 0.253 µM): 0.822
relative viability ([3]; first compound 0.8 µM): 0.743
relative viability ([3]; first compound 2.53 µM): 0.765
relative viability ([3]; first compound 8 µM): 0.765
relative viability ([4]; first compound 0.253 µM): 0.605
relative viability ([4]; first compound 0.8 µM): 0.585
relative viability ([4]; first compound 2.53 µM): 0.569
relative viability ([4]; first compound 8 µM): 0.572

SK-MES-1
relative viability ([1]; first compound 0.253 µM): 0.996
relative viability ([1]; first compound 0.8 µM): 1.07
relative viability ([1]; first compound 2.53 µM): 1.03
relative viability ([1]; first compound 8 µM): 0.965
relative viability ([2]; first compound 0.253 µM): 0.926
relative viability ([2]; first compound 0.8 µM): 1.01
relative viability ([2]; first compound 2.53 µM): 0.927
relative viability ([2]; first compound 8 µM): 0.939
relative viability ([3]; first compound 0.253 µM): 0.341
relative viability ([3]; first compound 0.8 µM): 0.415
relative viability ([3]; first compound 2.53 µM): 0.413
relative viability ([3]; first compound 8 µM): 0.348
relative viability ([4]; first compound 0.253 µM): 0.596
relative viability ([4]; first compound 0.8 µM): 0.642
relative viability ([4]; first compound 2.53 µM): 0.588
relative viability ([4]; first compound 8 µM): 0.537

SW 900
relative viability ([2]; first compound 0.253 µM): 0.49
relative viability ([2]; first compound 0.8 µM): 0.443
relative viability ([2]; first compound 2.53 µM): 0.519
relative viability ([2]; first compound 8 µM): 0.495
relative viability ([3]; first compound 0.253 µM): 0.418
relative viability ([3]; first compound 0.8 µM): 0.376
relative viability ([3]; first compound 2.53 µM): 0.483
relative viability ([3]; first compound 8 µM): 0.405
relative viability ([4]; first compound 0.253 µM): 0.574
relative viability ([4]; first compound 0.8 µM): 0.706
relative viability ([4]; first compound 2.53 µM): 0.592
relative viability ([4]; first compound 8 µM): 0.599

— the supplement of paper PMC10307832
